Results published in article PMC10281575, “PfCRT mutations conferring piperaquine resistance in falciparum malaria shape the kinetics of quinoline drug binding and transport” (PLOS Pathogens, 2023).
Several values for one entry are separate records, joined by “and”; a condition that tells them apart may be missing. Equal values may be shown once. Read-outs that look alike come from different tables or passages of the source.

Target: T1, PfCRT^Dd2_F145I (Plasmodium falciparum, UniProt Q8IBZ9, A220S/F145I/I356T/K76T/M74I/N326S/N75E/Q271E/R371I)
T1 construct: expressed in transfected cells; host or cells: Xenopus laevis oocytes injected with in vitro transcribed RNA (pSP64T)
T1 sequence (Q8IBZ9 1-424 M74I/N75E/K76T/F145I/A220S/Q271E/N326S/I356T/R371I): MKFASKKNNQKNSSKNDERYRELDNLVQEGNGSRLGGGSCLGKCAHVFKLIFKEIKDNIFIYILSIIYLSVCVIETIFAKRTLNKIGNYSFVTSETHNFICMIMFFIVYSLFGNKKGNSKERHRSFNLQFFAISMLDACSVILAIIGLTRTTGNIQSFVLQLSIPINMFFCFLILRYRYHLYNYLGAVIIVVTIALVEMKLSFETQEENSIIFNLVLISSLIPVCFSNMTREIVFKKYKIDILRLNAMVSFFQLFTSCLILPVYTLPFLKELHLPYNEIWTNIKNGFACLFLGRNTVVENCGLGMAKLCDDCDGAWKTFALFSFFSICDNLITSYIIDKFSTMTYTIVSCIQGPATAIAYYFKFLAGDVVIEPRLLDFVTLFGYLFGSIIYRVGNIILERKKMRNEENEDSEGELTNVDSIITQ
Assay: Competition kinetics of drug transport (radiolabeled substrate plus cold inhibitor), PfCRT^Dd2_F145I-expressing oocytes
Format: cell-based
Conditions: for Vmax, maximal velocity of drug transport: global fit; for β, partiality factor: factor on transport of the labeled drug by the other drug
Method: To further characterize the kinetic relationship between CQ and PPQ, we performed a series of competition reactions. To this end, water-injected oocytes and PfCRT-expressing oocytes were incubated in medium containing one of seven concentrations of radio-labeled CQ and one of six concentrations of cold PPQ for 60 min before the amount of radio-labeled CQ uptake was determined. The rate of PfCRT-mediated CQ uptake was calculated for each condition by subtracting the corresponding value obtained for water-injected oocytes from those of PfCRT-expressing oocytes. The results were analyzed as a function of the CQ concentration (Fig 4A) and 16 different models of substrate competition were globally fit to the data by the least-squares method, using Python. The models were ranked, according to their Akaike information criterion difference (ΔAICC) and their Akaike weight (Fig 4B), with the most plausible model being the one with the lowest AICC (ΔAICC = 0) and the highest Akaike weight.
A complementary set of experiments was undertaken to investigate the kinetic mechanism by which PfCRT^Dd2_F145I accepts CQ and PPQ (Fig 6). […] These included a global fit of the substrate competition data to the 16 kinetic models (Fig 6), analysis of the secondary plots (Vmax,app and Vmax,app/KM,app as a function of the inhibitor concentration) (Fig 7A), a fractional velocity plot analysis (Fig 7B) and a comparison of the experimental data with the modelled data using the noncompetitive inhibition equation (Fig 7C to 7F). […] The fractional velocity plot illustrated the partial character of the noncompetitive inhibition mechanism by yielding a partiality factor β^CQ = 0.31 ± 0.04, by which PPQ reduces the transport velocity of CQ (Fig 7B). […] A 3D model of the kinetics between PfCRT^Dd2_F145I, CQ and PPQ, and analyses of the residuals as a function of substrate and inhibitor concentrations confirmed that the model was also an appropriate explanation for the mutant transporter (Fig 7C to 7F).
Drug transport assays were performed as previously described. Briefly, measurements of radiolabeled drug uptake were made over 1 h, unless otherwise specified. […] Where specified, one or more unlabeled drugs were also present at the indicated concentrations. The direction of drug transport in the assays is from the extracellular medium (pH 6) into the oocyte cytosol (pH 7.2), which corresponds to the efflux of CQ or PPQ from the acidic digestive vacuole (pH 5.2) into the parasite cytosol (pH 7.2). The uptake assays were terminated by removing the oocytes from the reaction medium and washing them three times with 2 mL of ice-cold ND96 buffer. Each oocyte was transferred to a separate scintillation vial and lysed by the addition of 200 μL of a 5% SDS solution. The radioactivity in the sample was measured using a liquid scintillation analyser Tri-Carb 4910 TR (PerkinElmer). Water-injected oocytes were analyzed in parallel as a negative control. The buffer from each condition was measured in duplicate in parallel to each experiment to transform counts per minute into pmol of drug. Drug uptake attributable to PfCRT was determined by subtracting the background uptake from water-injected oocytes from that of PfCRT-expressing oocytes. In all cases, at least three independent experiments were performed on oocytes from different frogs, and for each condition in an experiment, measurements were made from 10 oocytes per treatment.
The following equations were adopted from Segel (1993), and the reader is referred to that text for the assumptions made in the author’s approach in the derivation of each equation [31]. The concentration of substrate is denoted as [S1] and the concentration of the inhibiting substrate is denoted as [S2]. KS1 and KS2 are the dissociation constants for the respective substrate-protein complexes.
Analyses of the kinetic data were performed using SigmaPlot version 13.0 and Python. […]

Clc1ccc2c(N3CCN(CCCN4CCN(c5ccnc6cc(Cl)ccc56)CC4)CC3)ccnc2c1 [PPQ, piperaquine]
PfCRTDd2_F145I-mediated PPQ transport (500 µM PPQ, 400 µM CQ): 83.51 pmol oocyte-1 h-1 and 92.59 pmol oocyte-1 h-1
v / (Vmax - v) (1/[PPQ] 0.002000 µM-1): 0.4488
v / (Vmax - v) (1/[PPQ] 0.002857 µM-1): 0.4948
v / (Vmax - v) (1/[PPQ] 0.005000 µM-1): 0.5591
v / (Vmax - v) (1/[PPQ] 0.008000 µM-1): 0.7269
v / (Vmax - v) (1/[PPQ] 0.020000 µM-1): 0.8760
most plausible inhibition model (16 models, ΔAICC, Akaike weight, secondary plots): partial noncompetitive inhibition
Vmax, maximal velocity of drug transport (Mixed (Partial) model, drug as radiolabeled substrate): 150 ± 5 pmol oocyte^-1 h^-1
Kd (Mixed (Partial) model, drug as cold inhibitor, read-out: KS, dissociation constant for the PfCRT-substrate complex): 160 ± 40 µM
Kd (Mixed (Partial) model, drug as radiolabeled substrate, read-out: KS, dissociation constant for the PfCRT-substrate complex): 128 ± 11 µM
β, partiality factor (Mixed (Partial) model): 0.64 ± 0.09
α, KS interaction factor (Mixed (Partial) model, label = radiolabeled substrate, other drug cold inhibitor): 1.2 ± 0.3
Vmax, maximal velocity of drug transport (Noncompetitive (Partial) model, drug as radiolabeled substrate, other drug as cold inhibitor): 152 pmol oocyte^-1 h^-1 and 152 ± 4 pmol oocyte^-1 h^-1
Kd (Noncompetitive (Partial) model, drug as cold inhibitor, read-out: KS, dissociation constant for the PfCRT-substrate complex): 167 µM and 170 µM
Kd (Noncompetitive (Partial) model, drug as radiolabeled substrate, read-out: KS, dissociation constant for the PfCRT-substrate complex): 134 ± 8 µM
β, partiality factor (Noncompetitive (Partial) model): 0.61 and 0.61 ± 0.07
KMapp ([3H]PPQ + CQ) ([CQ] 0 µM): 124.39 µM
Vmaxapp ([3H]PPQ + CQ) ([CQ] 0 µM): 148.37 pmol oocyte-1 h-1
Vmaxapp/KMapp ([3H]PPQ + CQ) ([CQ] 0 µM): 1.1929 h⁻¹
KMapp ([3H]PPQ + CQ) ([CQ] 25 µM): 139.84 µM
Vmaxapp ([3H]PPQ + CQ) ([CQ] 25 µM): 149.64 pmol oocyte-1 h-1
Vmaxapp/KMapp ([3H]PPQ + CQ) ([CQ] 25 µM): 1.0701 h⁻¹
KMapp ([3H]PPQ + CQ) ([CQ] 50 µM): 130.94 µM
Vmaxapp ([3H]PPQ + CQ) ([CQ] 50 µM): 139.65 pmol oocyte-1 h-1
Vmaxapp/KMapp ([3H]PPQ + CQ) ([CQ] 50 µM): 1.0665 h⁻¹
KMapp ([3H]PPQ + CQ) ([CQ] 125 µM): 131.31 µM
Vmaxapp ([3H]PPQ + CQ) ([CQ] 125 µM): 130.07 pmol oocyte-1 h-1
Vmaxapp/KMapp ([3H]PPQ + CQ) ([CQ] 125 µM): 0.9905 h⁻¹
KMapp ([3H]PPQ + CQ) ([CQ] 200 µM): 138.10 µM
Vmaxapp ([3H]PPQ + CQ) ([CQ] 200 µM): 125.38 pmol oocyte-1 h-1
Vmaxapp/KMapp ([3H]PPQ + CQ) ([CQ] 200 µM): 0.9079 h⁻¹
KMapp ([3H]PPQ + CQ) ([CQ] 400 µM): 147.48 µM
Vmaxapp ([3H]PPQ + CQ) ([CQ] 400 µM): 117.65 pmol oocyte-1 h-1
Vmaxapp/KMapp ([3H]PPQ + CQ) ([CQ] 400 µM): 0.7978 h⁻¹
Kd (secondary plot, half-maximal inhibitory concentration of Vmax,app versus inhibitor concentration, read-out: αKS, dissociation constant between the drug and the PfCRT complex with the other drug): 170 ± 30 µM
Kd (secondary plot, half-maximal inhibitory concentration of Vmax,app/KM,app versus inhibitor concentration, read-out: KS, dissociation constant between the drug and PfCRT): 170 ± 50 µM
α (αKS divided by KS) (secondary plots, label = prebound drug): 0.8 ± 0.7
